Assay results: ChEMBL document CHEMBL1151162, “Coumarins from Opopanax chironium. New dihydrofuranocoumarins and differential induction of apoptosis by imperatorin and heraclenin” (J Nat Prod, 2004)
The source made the active and inactive calls. No cut-off for these calls is given here.

Tests used:
Type in all cases: functional, cell-based
Jurkat [1] = test: Induction of DNA fragmentation at G2/M phase in human Jurkat cells after 72 hrs by propidium iodide and FITC-dUTP double staining
Jurkat [2] = test: Induction of apoptosis in human Jurkat cells assessed as hypodiploidic cells after 72 hrs
Jurkat [3] = test: Induction of cell cycle arrest in human Jurkat cells assessed as accumulation at G2/M phase after 48 hrs
Jurkat [4] = test: Induction of DNA fragmentation at G1/S phase in human Jurkat cells after 72 hrs by propidium iodide and FITC-dUTP double staining
Jurkat [5] = test: Induction of cell cycle arrest in human Jurkat cells assessed as accumulation at G2/M phase at 25 ug/mL after 48 hrs

Row | SMILES | Activity (Jurkat [1]) | Activity (Jurkat [2]) | Activity (Jurkat [3]) | Activity (Jurkat [4]) | Activity (Jurkat [5])
1 | CC1(C)O[C@@H]1COc1c2occc2cc2ccc(=O)oc12 | Active | Active | Active |  | 
2 | CC(C)=CCOc1c2occc2cc2ccc(=O)oc12 |  |  | inactive | Active | inactive
